Laboratory results taken from ChEMBL document CHEMBL5154649, “Design, synthesis, and characterization of novel aminoalcohol quinolines with strong in vitro antimalarial activity” (Eur J Med Chem, 2022).

Assays:
[1] = tested on: Plasmodium falciparum; test: Antiplasmodial activity against CQ-resistant Plasmodium falciparum W2 assessed as inhibition of parasite growth measured after 48 hrs by SYBR Green 1 dye based fluorescence assay; assay type: functional, organism-based; settings: W2, 48 h
[2] = tested on: Plasmodium falciparum; test: Selectivity index, ratio of IC50 for antiplasmodial activity against CQ-susceptible Plasmodium falciparum 3D7 to IC50 for antiplasmodial activity against CQ-resistant Plasmodium falciparum W2 by SYBR Green 1 dye based fluorescence assay; assay type: functional
[3] = tested on: Plasmodium falciparum; test: Antiplasmodial activity against CQ-susceptible Plasmodium falciparum 3D7 assessed as inhibition of parasite growth measured after 48 hrs by SYBR Green 1 dye based fluorescence assay; assay type: functional, organism-based; settings: 3D7, 48 h

SMILES | IC50 [1] [µM] | Ratio IC50 [2] | IC50 [3] [µM]
OC[C@H](NC[C@H](O)c1cc(C(F)(F)F)nc2c(C(F)(F)F)cccc12)c1ccccc1 | 0.0299 | 4.55 | 0.136
O[C@H](CN1CCN(Cc2cccc3ccccc23)CC1)c1cc(C(F)(F)F)nc2c(C(F)(F)F)cccc12 | – | – | > 1
C[C@@H](CO)NC[C@H](O)c1cc(C(F)(F)F)nc2c(C(F)(F)F)cccc12 (single isomer, unassigned) | 0.0517 | 2.7 | 0.138
O[C@H](CN1CCN(C[C@@H](O)c2cc(C(F)(F)F)nc3c(C(F)(F)F)cccc23)CC1)c1cc(C(F)(F)F)nc2c(C(F)(F)F)cccc12 | 0.707 | 1.35 | 0.953
O[C@@H](CN1CCN(Cc2cccc3ccccc23)CC1)c1cc(C(F)(F)F)nc2c(C(F)(F)F)cccc12 | – | – | > 1
OCCNC[C@H](O)c1cc(C(F)(F)F)nc2c(C(F)(F)F)cccc12 | – | – | > 1
NCCNC[C@H](O)c1cc(C(F)(F)F)nc2c(C(F)(F)F)cccc12 | > 1 | – | > 1
O[C@@H](CN1CCN(CCN2CCN(C[C@H](O)c3cc(C(F)(F)F)nc4c(C(F)(F)F)cccc34)CC2)CC1)c1cc(C(F)(F)F)nc2c(C(F)(F)F)cccc12 | > 1 | – | 0.147
O[C@H](CN1CCN(CCN2CCN(C[C@@H](O)c3cc(C(F)(F)F)nc4c(C(F)(F)F)cccc34)CC2)CC1)c1cc(C(F)(F)F)nc2c(C(F)(F)F)cccc12 | – | – | 0.726
OC[C@@H](NC[C@H](O)c1cc(C(F)(F)F)nc2c(C(F)(F)F)cccc12)c1ccccc1 | 0.0159 | 6.5 | 0.104
O[C@H](CNCCCCCCCCCCCCNC[C@@H](O)c1cc(C(F)(F)F)nc2c(C(F)(F)F)cccc12)c1cc(C(F)(F)F)nc2c(C(F)(F)F)cccc12 | 0.837 | 0.3 | 0.249
C[C@@H](CO)NC[C@@H](O)c1cc(C(F)(F)F)nc2c(C(F)(F)F)cccc12 | – | – | 0.166
OCCCC(CCCO)(CCCO)NC[C@@H](O)c1cc(C(F)(F)F)nc2c(C(F)(F)F)cccc12 | – | – | > 1
NCCCCCCCCCCCCNC[C@@H](O)c1cc(C(F)(F)F)nc2c(C(F)(F)F)cccc12 | 0.0438 | 0.55 | 0.0239
OCCN1CCN(C[C@H](O)c2cc(C(F)(F)F)nc3c(C(F)(F)F)cccc23)CC1 | – | – | > 1
COC[C@H](C)NC[C@@H](O)c1cc(C(F)(F)F)nc2c(C(F)(F)F)cccc12 | 0.0572 | 0.2 | 0.0117
CC(C)(CO)NC[C@@H](O)c1cc(C(F)(F)F)nc2c(C(F)(F)F)cccc12 | 0.137 | 1.9 | 0.254
O[C@H](CN1CCNCC1)c1cc(C(F)(F)F)nc2c(C(F)(F)F)cccc12 | – | – | > 1
NC[C@@H](O)c1cc(C(F)(F)F)nc2c(C(F)(F)F)cccc12 | 1.46 | – | –
NCCCCCCCCCCCCNC[C@H](O)c1cc(C(F)(F)F)nc2c(C(F)(F)F)cccc12 | 0.379 | 0.5 | 0.176
O[C@@H](CN1CCNCC1)c1cc(C(F)(F)F)nc2c(C(F)(F)F)cccc12 | – | – | > 1
OCCN1CCN(C[C@@H](O)c2cc(C(F)(F)F)nc3c(C(F)(F)F)cccc23)CC1 | – | – | > 1
OCCCC(CCCO)(CCCO)NC[C@H](O)c1cc(C(F)(F)F)nc2c(C(F)(F)F)cccc12 | – | – | > 1
NCCNC[C@@H](O)c1cc(C(F)(F)F)nc2c(C(F)(F)F)cccc12 | > 1 | – | > 1
O[C@@H](CN1CCN(C[C@H](O)c2cc(C(F)(F)F)nc3c(C(F)(F)F)cccc23)CC1)c1cc(C(F)(F)F)nc2c(C(F)(F)F)cccc12 | > 1 | – | > 1
OCCNC[C@@H](O)c1cc(C(F)(F)F)nc2c(C(F)(F)F)cccc12 | – | – | > 1
O[C@@H](CNCCCCCCCCCCCCNC[C@H](O)c1cc(C(F)(F)F)nc2c(C(F)(F)F)cccc12)c1cc(C(F)(F)F)nc2c(C(F)(F)F)cccc12 | > 1 | – | > 1
